# Measurements taken from patent US4748161A, “Triterpenyl esters of organic acids and hypolipidemic agents composed of them” (Amano Pharmaceutical Co., Ltd., priority 1984, dated 1988).
# Tested on: serum lipids and serum lipid hydroperoxide
# Assay: Pharmacological test method A for anti-hyperlipidemic activity (serum lipids, 2 weeks feeding)
# Assay type: in vivo, male Wistar strain rats
# Conditions: for AI [(TC - HDL-C)/(HDL-C)] / HDL-C in serum / LPO in serum / PL in serum / TC in serum / TG in serum: 1% in hyperlipidemic diet, 2 weeks; for AI % of diff. / AI Diff. / HDL-C % of diff. / HDL-C Diff. / LPO % of diff. / LPO Diff. / PL % of diff. / PL Diff. / TC % of diff. / TC Diff. / TG % of diff. / TG Diff.: versus control group
# Method: Male Wistar strain rats (100±lg, each 10 rats were formed into a group) were used as test animals. Diet for the control group was prepared by thorough mixing of 20% casein, 62.5% glucose, 10% hydrogenated coconut oil, 2% agar powder, 4% vitamin-containing salt mixture, 1% cholesterol, and 0.5% cholic acid (this composition is described by Fukushima et al, in "Yakugaku Zassi", 89, No. 6, pp. 857-862 (1962)). Diet for the test groups was prepared by good mixing of 1% each of cycloartenol, 24-methylenecycloartanol, and cyclobranol with the control group's diet. Each rat was kept in a cage at a constant temperature of 23±1° C. and a constant R.H. of 55±5% for 2 weeks, during which 10 g/day of the prescribed was given. Finally the rats were fasted from food except water for 16 hours (from 4 p.m. of the 14th test day to 8 a.m. of the 15th test day), and under anesthesia with pentbarbital sodium (tradename: Nembutal), blood was taken from each rat through the descending abdominal arota. Then, TC, HDL-C, TG, PL, and LPO in the serum were measured in the manner that will be described below.
# A TC kit-K (supplied by Nippon Shoji Kaisha, Ltd.) was used. The principle of this determination is as follows: The ester of cholesterol in the serum is hydrolyzed with cholesterol-ester hydrolase into free cholesterol and fatty acids. All the free cholesterol is oxidized with cholesterol oxydase to form Δ^4 -cholestenone and hydrogen peroxide. Phenol and 4-aminoantipyrin are oxidatively condensed together by the formed hydrogen peroxide and peroxydase. The produced red quinone coloring matter is measured by colorimetry for absorbance at 500 nm using a spectrophotometer, thereby determining the TC:
# The color-developing liquid (3.0 ml) is well mixed with the sample serum (0.02 ml). The mixture once heated at 37° C. for 15 minutes, is measured for absorbance at 500 nm with a spectrophotometer. The found absorbance is denoted by EA. On the other hand, the color-developing liquid (3.0 ml) is well mixed with the standard solution. The mixture is treated and measured for absorbance at 500 nm in the same manner as the above. This found absorbance is denoted by ES. Both EA and ES are determined with reference to the value of the blank test conducted using the color-developing liquid (3.0 ml) alone. [formula]
# An HDL-C kit-N (supplied by Nippon Shoji Kaisha, Ltd.) was used. […] (VLDL) and lo density lipoprotein (LDL) in the serum is precipitated by the action of heparin. The precipitate is separated by centrifugation. High density lipoprotein (HDL) is dissolved in the separated supernatant. Esters of cholesterol in this fraction is hydrolyzed with cholesterol-ester hydrolase into free cholesterol and fatty acids. All the free cholesterol is oxidized with cholesterol oxydase to form Δ^4 -cholestenone and hydrogen peroxide. Phenol and 4-aminoantipyrine are oxidatively condensed together by the formed hydrogen peroxide and peroxydase. The produced red quinone coloring matter is measured by colorimetry for absorbance at 500 nm using a spectrophotometer, thereby determining the HDL-C.
# A PL kit-K (supplied by Nippon Shoji Kaisha, Ltd.) was used for the determination. Lecithin, sphingomyelin, and lysolecithin are decomposed by phospholipase D into choline and phosphatidic acid, N-acylsphingosyl phosphate, or lysophosphatidic acid, respectively. The resulting choline is quantitatively decomposed by choline oxydase into hydrogen peroxide and betaine. With this hydrogen peroxide, and aid of peroxydase, phenol and 4-aminoantipyrin are condensed into red quinone pigment, then the absorbance at 500 nm of which is measured with a spectrophotometer, thereby determining the PL.
# Serum TG level was determined by means of a triglyceride test kit (supplied by Wako Pure Chemical Industries, Ltd.) in which acetylacetone is used for a reagent, in the following manner: Serum proteins are precipitated, when isopropyl alcohol and the sample serum are mixed. […]
SMILES,AI [(TC - HDL-C)/(HDL-C)],HDL-C in serum [mg/dL],LPO in serum [nmol/mL],PL in serum [mg/dL],TC in serum [mg/dL],TG in serum [mg/dL],AI % of diff. [%],AI Diff.,HDL-C % of diff.,HDL-C Diff.,LPO % of diff. [%],LPO Diff. [nmol/mL],PL % of diff. [%],PL Diff. [mg/dL],TC % of diff. [%],TC Diff. [mg/dL],TG % of diff. [%],TG Diff. [mg/dL]
"CC(C)=C(C)CCC(C)C1CCC2(C)C3CCC4C(C)(C)C(OC(=O)c5ccccc5N)CCC45CC35CCC12C (stereo not drawn) [Example 47, cyclobranyl-o-aminobenzoate]",1.811,53.4,2.03,140.3,150.1,20.4,-1.9,-0.036,-9.0%,-5.3 mg/dL,-13.2,-0.31,-5.5,-8.1,-10.2,-17.0,-17.7,-4.4
"CC(C)=C(C)CCC(C)C1CCC2(C)C3CCC4C(C)(C)C(OC(=O)c5cccc(N)c5)CCC45CC35CCC12C (stereo not drawn) [Example 49, cyclobranyl-m-aminobenzoate]",1.288,58.0,2.02,128.4,132.7,18.3,-30.3,-0.559,-1.2%,-0.7 mg/dL,-13.7,-0.32,-13.5,-20.0,-20.6,-34.4,-26.2,-6.5
"CC(C)=C(C)CCC(C)C1CCC2(C)C3CCC4C(C)(C)C(OC(=O)c5cccnc5)CCC45CC35CCC12C (stereo not drawn) [Example 50, cyclobranylnicotinate]",0.697,95.7,1.87,138.8,162.4,34.7,-43.0,-0.525,10.6%,+9.2 mg/dl,-16.7,-0.37,-19.6,-33.8,-15.5,-29.8,-4.3,-1.6
"CCCCC/C=C\C/C=C\CCCCCCCC(=O)OC1CCC23CC24CCC2(C)C(C(C)CCC(C)=C(C)C)CCC2(C)C4CCC3C1(C)C (stereo not drawn) [Example 51, cyclobranyllinolate]",0.623,96.4,1.69,146.0,156.5,34.7,-49.0,-0.599,+11.5%,+9.9 mg/dl,-24.4,-0.55,-15.4,-26.6,-18.6,-35.7,-4.3,-1.6
"CC(C)=C(C)CCC(C)C1CCC2(C)C3CCC4C(C)(C)C(OC(=O)c5ccc(O)cc5)CCC45CC35CCC12C (stereo not drawn) [Example 58, cyclobranyl-p-hydroxybenzoate]",1.318,62.0,1.82,121.3,143.7,26.8,-25.4,-0.449,+3.0%,+1.8 mg/dl,-28.1,-0.71,-11.3,-15.4,-13.7,-22.9,-1.5,-0.4
"CCOc1cc(C(=O)OC2CCC34CC35CCC3(C)C(C(C)CCC=C(C)C)CCC3(C)C5CCC4C2(C)C)ccc1O (stereo not drawn) [Example 60, cycloartenyl-3-ethoxy-4-hydroxybenzoate]",0.609,102.5,1.98,161.4,164.9,32.8,-39.2,-0.393,+6.5%,+6.3 mg/dl,-15.0,-0.35,-10.8,-19.5,14.4,-27.7,-1.2,-0.4
"CCOc1cc(C(=O)OC2CCC34CC35CCC3(C)C(C(C)CCC(C)=C(C)C)CCC3(C)C5CCC4C2(C)C)ccc1O (stereo not drawn) [Example 62, cyclobranyl-3-ethoxy-4-hydroxybenzoate]",0.474,108.2,1.94,156.5,159.5,32.0,-52.7,-0.528,+12.5%,+12.0 mg/dl,-16.8,-0.39,-13.5,-24.4,17.2,-33.1,-3.6,-1.2
"CCOc1cc(C=CC(=O)OC2CCC34CC35CCC3(C)C(C(C)CCC(C)=C(C)C)CCC3(C)C5CCC4C2(C)C)ccc1O (stereo not drawn) [Example 71, cyclobranyl-3-ethoxy-4-hydroxycinnamate]",0.523,106.0,1.96,157.7,161.4,32.9,-47.8,-0.479,+10.2%,+9.8 mg/dl,-15.9,-0.37,-12.8,-23.2,16.2,-31.2,-2.8,-0.9
"C=C(CCC(C)C1CCC2(C)C3CCC4C(C)(C)C(OC(=O)C=Cc5ccc(OC(C)=O)c(OCC)c5)CCC45CC35CCC12C)C(C)C (stereo not drawn) [Example 72, 24-methylenecycloartanyl-4-acetoxy-3-ethoxycinnamate]",1.091,89.2,2.07,160.3,186.5,41.8,-35.2,-0.593,+10.2%,+8.3 mg/dl,-10.4,-0.24,-10.8,-19.4,-14.1,-30.6,-2.4,-1.0
